Laboratory results: patent US20170307640A1, “METHODS, KITS AND DEVICES FOR DETECTING BII-SPECTRIN, AND BREAKDOWN PRODUCTS THEREOF, AS BIOMARKERS FOR THE DIAGNOSIS OF NEURAL INJURY” (BANYAN BIOMARKERS, INC., priority 2012, published 2017)
“Also recorded” adds a separate entry of the source.

B1: Calpain: purified protease human calpain-2 (BD Bioscience; Catalogue no. 208715) (protein, UniProt P17655 20-700, looked up)
Calpain-2 catalytic subunit: SHDRAIKYLNQDYEALRNECLEAGTLFQDPSFPAIPSALGFKELGPYSSKTRGIEWKRPTEICADPQFIIGGATRTDICQGALGDCWLLAAIASLTLNEEILARVVPLNQSFQENYAGIFHFQFWQYGEWVEVVVDDRLPTKDGELLFVHSAEGSEFWSALLEKAYAKINGCYEALSGGATTEGFEDFTGGIAEWYELKKPPPNLFKIIQKALQKGSLLGCSIDITSAADSEAITFQKLVKGHAYSVTGAEEVESNGSLQKLIRIRNPWGEVEWTGRWNDNCPSWNTIDPEERERLTRRHEDGEFWMSFSDFLRHYSRLEICNLTPDTLTSDTYKKWKLTKMDGNWRRGSTAGGCRNYPNTFWMNPQYLIKLEEEDEDEEDGESGCTFLVGLIQKHRRRQRKMGEDMHTIGFGIYEVPEELSGQTNIHLSKNFFLTNRARERSDTFINLREVLNRFKLPPGEYILVPSTFEPNKDGDFCIRVFSEKKADYQAVDDEIEANLEEFDISEDDIDDGFRRLFAQLAGEDAEISAFELQTILRRVLAKRQDIKSDGFSIETCKIMVDMLDSDGSGKLGLKEFYILWTKIQKYQKIYREIDVDRSGTMNSYEMRKALEEAGFKMPCQLHQVIVARFADDQLIIDFDNFVRCLVRLETLFKIFKQLDPENTGTIELDLISWLCFSVL

Columns and labels:
[1] = system: βII-spectrin; assay: Effects of calpain and caspase-3 inhibitors on βII-SBDP pattern in challenged cerebrocortical cultures (Western blot); type: cell-based, rat; conditions: for βII-SBDP bands after MTX challenge with inhibitor: 0.5 nM MTX 3 hrs + 20 μM IDN-6556 or 30 μM SNJ-1945; for βII-SBDP bands after NMDA challenge with inhibitor: 300 μM NMDA + 20 μM IDN-6556 or 30 μM SNJ-1945; for βII-SBDP bands after EDTA challenge with inhibitor: EDTA + 20 μM IDN-6556 or 30 μM SNJ-1945, pretreated 1 hr
Procedure: (§1) All cultures are prepared in quadruplicate. Cerebrocortical cells harvested from 1-day old Sprague-Dawley rat brains are plated on poly-L-lysine coated 6-well culture plates (Erie Scientific, Portsmouth, N.H., USA) according to a previously cited method (Nath et al., 2000) at a density of 4.36×10^5 cells/mL. Cultures are maintained in Dulbecco's modified Eagle's medium (DMEM) with 10% fetal bovine serum in a humidified incubator in an atmosphere of 10% CO2 at 37° C. After 5 days in culture, the media is changed to DMEM with 5% horse serum. Subsequent media changes are performed three times a week. Experiments are performed on days 10 to 11 in vitro when astroglia have formed a confluent monolayer beneath morphologically mature neurons. All animal studies conform to the guidelines outlined in the Guide for the Care and Use of Laboratory Animals from the National Institutes of Health and were approved by the local IACUC.
(§2) Cells are collected and lysed with the same lysis buffer as described above.
(§3) The neuronal lysates are then centrifuged at 15000 g for 5 min at 4° C. to clear and remove insoluble debris, snap-frozen, and stored at −85° C. until use.
(§4) Protein concentrations of culture lysates are determined by bicinchoninic acid microprotein assays (Pierce Inc, Rockford, Ill., USA) with albumin standards. Protein balanced samples are prepared for sodium dodecyl sulfate-polyacrylamide gel electrophoresis (SDS-PAGE) in […] loading buffer containing 0.25 M Tris (pH 6.8), 0.2 M DTT, 8% SDS, 0.02% bromophenol blue, and 20% glycerol in distilled H2O. Twenty micrograms (20 μg) of protein per lane are routinely resolved by SDS-PAGE on 6% Tris/glycine gels (for spectrin protein) and/or 10-20% Tris/glycine gels for 2 hr at 120 V. Following electrophoresis, separated proteins are laterally transferred to polyvinylidene fluoride (PVDF) membranes in a transfer buffer containing 0.50 M glycine, 0.025 M Tris-HC1 (pH 8.3) and 10% methanol at a constant voltage of 20 V for 2 hr at 4° C. in a semi-dry transfer unit (Bio-Rad, Hercules, Calif.).
(§5) Tissue samples (20 μg) are subjected to electrophoresis, equal volumes of samples for SDS/PAGE are prepared in a 2×-fold loading buffer [0.25 M Tris (pH 6.8), 0.2 M DTT, 8% SDS, 0.02% bromophenol blue and 20% glycerol in distilled H2O]. Gels are run at 120 V for 2 hr in a mini-gel unit (Invitrogen Life). Protein bands are transferred to PVDF membrane on a semi-dry Trans-blot unit (Bio-Rad, Hercules, Calif.) at 20 V for 2 hrs. After electrotransfer, blotting membranes are blocked for 1 hr at ambient temperature in 5% non-fat milk in TBST [20 mM Tris/HCl (pH 7.4), 150 mM NaCl and 0.05% (w/v) Tween-20], then incubated with the primary monoclonal antibody in TBST/5% milk. Primary antibodies to be used include mouse anti all-spectrin (Affinity Res. Prod. Nottingham, UK), mouse monoclonal anti βII-spectrin (BD Transduction Laboratories, USA; cat # 612563) and rabbit anti βIII-spectrin (BETHYL Laboratories, Inc. TX, cat # A310-367A). The blots are then washed 3 times for 15 min with TBST and exposed to biotinylated secondary antibodies (Amersham Biosciences, U.K.) followed by a 30 min incubation with streptavidin-conjugated alkaline phosphatase. Colorimetric development is performed with a one-step 5-bromo-4-chloro-3-indolyl phosphate-reagent (Sigma-Aldrich, St. Louis, Mo.). The molecular weights of intact proteins and their potential BDPs are assessed by running along-side rainbow colored molecular weight standards (Amersham Biosciences, U.K.)
(§6) Rat cerebrocortical cell cultures are prepared as described above and treated with calpain inhibitor SNJ-1945 and caspase-3 inhibitor IDN-6556 along with different neurotoxic paradigms (FIG. 3).

[2] = system: αII-spectrin; assay: αII-spectrin breakdown pattern in challenged cerebrocortical cultures with or without inhibitors (Western blot); type: cell-based, rat; conditions: for αII-spectrin fragments (SBDP-150/SBDP-145, SBDP-120) after NMDA challenge with respective protease inhibitor: 300 μM NMDA + 30 μM SNJ-1945 or 20 μM IDN-6556; for αII-spectrin breakdown products after neurotoxin challenge alone: EDTA, MTX or NMDA alone
Procedure: as §1, §2, §3, §4, §5, §6

[3] = system: rat cerebrocortical cultures; assay: Neurotoxin challenges of primary cerebrocortical cultures: morphology and βII-spectrin breakdown by Western blot; type: cell-based; conditions: for degeneration in soma and neurites of neuronal cultures under microscope: MTX at 3 hours, STS, EDTA, NMDA at 24 hours, vs untreated control; for βII-SBDP bands after neurotoxin challenge alone (Western blot): NMDA 300 μM, STS 0.5 μM, EDTA 2 mM, MTX 0.5 nM 3 hrs, no inhibitor
Procedure: as §1, §2, §3, §4, §5
Alternatively, neuronal cultures are treated with staurosporine (STS) for 24 hours or with NMDA. (FIG. 2)

[4] = system: βII-spectrin; assay: βII-spectrin proteolytic fragmentation after brain cortex lysate digestion with calpain-2 and caspase-3; type: biochemical, rat
Procedure: as §5, with “Colorimetric development is performed with a one-step 5-bromo-4-chloro-3-indolyl phosphate-reagent (Sigma-Aldrich, St. Louis, Mo.).” left out

| Molecule | βII-SBDP bands after MTX challenge with inhibitor [1] | βII-SBDP bands after NMDA challenge with inhibitor [1] | βII-SBDP bands after EDTA challenge with inhibitor [1] | αII-spectrin fragments (SBDP-150/SBDP-145, SBDP-120) after NMDA challenge with respective protease inhibitor [2] | degeneration in soma and neurites of neuronal cultures under microscope [3] | βII-SBDP bands after neurotoxin challenge alone (Western blot) [3] | αII-spectrin breakdown products after neurotoxin challenge alone [2] | also measured |
| --- | --- | --- | --- | --- | --- | --- | --- | --- |
| C[C@H](NC(=O)C(=O)Nc1ccccc1C(C)(C)C)C(=O)N[C@@H](CC(=O)O)C(=O)COc1c(F)c(F)cc(F)c1F [IDN-6556] | βII-SBDPs of 110 kDa and 85 kDa are observed | much weaker | no βII-SBDPs | strongly inhibited |  |  |  | αII-spectrin caspase-mediated SBDP-120 after EDTA challenge with inhibitor ([2]; EDTA + IDN-6556): absence |
| C=CC[C@H](C)[C@H](C)C[C@@H](O)[C@H](O)[C@@H]1CC[C@@]2(C)O[C@@]3(C)C[C@@]4(C)O[C@H]5/C=C\C[C@H]6O[C@H]7C[C@H]8O[C@H]9C[C@@]%10(C)O[C@@](C)([C@@H]%11CC[C@H]%12O[C@@]%13(C)C[C@H]%14O[C@@]%15(C)C[C@H]%16O[C@@]%17(C)C[C@@H](O)[C@H]([C@@H]%18O[C@H]%19[C@H](O)[C@@H](O)[C@H](C[C@H](O)C[C@@H](O)[C@@H]%20O[C@H]%21[C@H](O)[C@@H](O)[C@H]([C@@H]%22O[C@@H]%23[C@H](O)[C@H]%24O[C@H]%25C[C@H]%26O[C@@H](C[C@H](O)[C@@H](O)[C@H]%27O[C@H]%28[C@H](O)[C@H]%29O[C@H]%30C[C@H]%31O[C@H]%32[C@@H](O)[C@@H](O)[C@H]([C@H](C)[C@H](O)[C@H](C)CC[C@H](OS(=O)(=O)O)[C@H](O)[C@H](C)C[C@@H](O)C(=C)/C(C)=C/CO)O[C@@H]%32[C@H](O)C[C@]%31(C)O[C@@H]%30C[C@]%29(C)O[C@@H]%28C[C@H]%27O)[C@H](OS(=O)(=O)O)[C@H](O)[C@@H]%26O[C@@H]%25C[C@@H]%24O[C@H]%23[C@H](O)[C@H]%22O)O[C@H]%21C[C@H]%20O)O[C@H]%19C[C@H]%18O)O[C@@H]%17[C@H](O)[C@]%16(C)O[C@@H]%15CC[C@]%14(C)O[C@@H]%13C[C@@H]%12O%11)[C@H](O)C[C@@H]%10O[C@]9(C)CC[C@]8(C)O[C@]7(C)C[C@@H]6O[C@@H]5C[C@@H]4O[C@@H]3C[C@@H]2O1 [MTX, maitotoxin] |  |  |  |  | significant degeneration | strong βII-SBDPs of 110 kDa and 85 kDa bands; also recorded: βII-SBDPs of 110 kDa and 85 kDa are observed | presence of the prominent calpain-mediated SBDP-145 kDa band | βII-SBDPs generated by EDTA and MTX treatments used as controls for apoptotic and necrotic injury ([4]; brain lysates treated with MTX and EDTA, comparators in FIG. 8): 110/85 |
| CN[C@H](CC(=O)O)C(=O)O [NMDA, N-methyl-D-aspartate] |  |  |  |  | significant degeneration | dominant signal of calpain-mediated βII-spectrin breakdown product (βII-SBDP) of 110 kDa and 85 kDa, with minimal caspase mediated βII-SBDP of 108 kDa and 80 kDa; also recorded: presence of all the βII-SBDPs (110, 108, 85 and 80 kDa) | prominent calpain-mediated SBDP-150/SBDP-145, with minor bands of caspase-3-mediated SBDP-120 |  |
| COCCOCCOC(=O)N[C@@H](CC(C)C)C(=O)N[C@@H](Cc1ccccc1)C(=O)C(=O)NC1CC1 [SNJ-1945] | no βII-SBDPs observed | only βII-SBDP-108 kDa band | strong βII-SBDP 108 kDa/weak 80 kDa bands | strongly inhibited |  |  |  | αII-spectrin calpain-mediated SBDP-145 after MTX challenge with inhibitor ([2]; MTX + SNJ-1945): absence |
| CN[C@@H]1C[C@H]2O[C@@](C)([C@@H]1OC)n1c3ccccc3c3c4c(c5c6ccccc6n2c5c31)C(=O)NC4 [STS, staurosporine] |  |  |  |  | significant degeneration | two prominent βII-SBDP bands of 108 kDa and 80 kDa |  |  |
| B1 |  |  |  |  |  |  |  | βII-SBDPs generated by in vitro protease digestion of cortical tissue lysate ([4]; intact 260 kDa βII-spectrin, calpain-2 25° C. 30 min, caspase-3 37° C. 4 hrs): prominent 110 and 85 kDa βII-SBDPs in addition to a number of non-specific high molecular bands |
